# Experimental data taken from US20180296530A1, “METHOD FOR TREATING ATOPIC DERMATITIS” (priority 2015, published 2018).
# What was measured:
# [1] = test system: Patients aged 1 to 18 years with physician-diagnosed AD; assay: Randomized double-blind placebo-controlled crossover clinical trial: AD severity by SCORAD index; type: in vivo, human; set-up: key to mean SCORAD index, first treatment period, before / mean SCORAD index, first treatment period, after: SCORAD index, range 1-103, higher = worse symptoms; key to Objective SCORAD index, Difference: objective SCORAD, range 0-83, higher = worse symptoms
# Description: A randomized clinical study with a double-blind, placebo-controlled crossover design was performed. The institutional review committee of National Taiwan University Hospital approved the study protocol. This study conformed to the principles of the Declaration of Helsinki. Patients or their guardians provided written informed consent. Patients aged 1 to 18 years with physician-diagnosed AD involving at least 5% of the total body surface area were recruited from the pediatric and dermatology outpatient departments of the National Taiwan University Hospital from Aug. 1, 2012, through Jan. 31, 2013. Follow-up was completed on Apr. 13, 2013. Those patients with sleep problems occurring more than 3 days per week during the previous 3 months were eligible. The study participants were randomly assigned to 2 groups in a 1:1 ratio, with a block size of 4. One group received melatonin first and then placebo, and the other group received placebo first and then melatonin. The melatonin and placebo tablets were identical in appearance. The participants and their caregivers, treating physicians, those assessing outcomes, and those analyzing the data were all masked to group assignment. […] They were then randomized to receive oral melatonin, 3 mg/d (General Nutrition Corporation), or placebo (Standard Chem & Pharm Co, Ltd) at bedtime for 4 weeks. After a 2-week washout period, participants crossed to the alternate treatment. In this clinical trial, the primary study outcome was the Scoring Atopic Dermatitis (SCORAD) index for the evaluation of AD severity. Secondary outcomes included the objective sleep variables measured by actigraphy, the patient's subjective description of the change in sleep and dermatitis severity, the sleep variables measured by polysomnography, nocturnal urinary levels of 6-sulfatoxymelatonin, and serumtotal and allergen-specific IgE levels. Severity of AD was assessed using the SCORAD index (range, 1-103, with greater scores indicating worse symptoms) by the same physician (Y.-S.C.) blinded to the treatment randomization. The SCORAD index includes subjective visual analog scale scores from 0 to 10 (with greater numbers indicating worse symptoms) for degree of pruritus and sleep loss, which are referred to as the pruritus score and the subjective sleep score, respectively, in this study. The objective SCORAD index, which excludes the SCORAD score for subjective symptoms (range, 0-83, with greater scores indicating worse symptoms), was also used for analysis.
# [2] = test system: Patients aged 1 to 18 years with physician-diagnosed AD; assay: Clinical trial: polysomnography in a subgroup; type: in vivo, human; settings: melatonin vs placebo, P>0.05
# Description: Sleep was evaluated by actigraphy (Mini-Mitter Actiwatch; Philips-Respironics). Each participant wore the actigraphic device on the nondominant wrist for 3 consecutive nights starting 3 nights before each treatment period and for the last 3 nights of each treatment period. In a subgroup of patients who offered consent, polysomnography was performed on the night before the first day and on the last night of each treatment period.
# [3] = Clinical trial: nocturnal urinary 6-sulfatoxymelatonin by ELISA; type: in vivo, human; settings: after treatment with melatonin compared with placebo, P<0.001
# Description: The first urine sample on the morning after each actigraphic examination was obtained. Levels of urinary 6-sulfatoxymelatonin were assayed by enzyme-linked immunosorbent assay with a commercialized kit (IBL International GmbH) and were used to represent the melatonin level throughout the previous night.
# [4] = test system: DNCB-induced AD mouse model; assay: Example 6: dermatitis severity, topical melatonin cream in DNCB-induced AD mouse model; type: in vivo, Balb/c mice; settings: for clinical score (dermatitis): day 1 to day 14, Day 15, DNCB group 10, Control 0
# Description: Macroscopic assessment of the severity of dermatitis was determined by a scoring method as described previously. Briefly, the degree of each sign were scored as 0 (none), 1 (mild), 2 (moderate), and 3 (severe). This scoring was based on the severity of erythema (hemorrhage), edema, excoriation (erosion), and dryness (scaling). The total score (minimum 0 and maximum 12) from the four symptoms of each mouse were taken as the score for that mouse. Ear thickness was measured with a thickness gauge (Digimatic Indicator, Mitsutoyo, Tokyo). This assessment was performed on the last day of the experiment (Day 20) by an investigator who was blind to the grouping of the animals.
# Four- to six-week-old Balb/c mice were maintained under specific pathogen-free conditions. Animals were housed in an air-conditioned animal room (25±1° C.; relative humidity 40±5%) and were fed a laboratory diet and distilled water. Animal care and handling protocols were approved by the Animal Committee of the College of Medicine, Taiwan University, and all procedures were conducted in accordance with the U.S. National Institute of Health guidelines.
# The protocol for establishing an AD mouse model in this Example was modified from those described previously. Briefly, referring to FIG. 12, DNCB-induced AD mouse model was prepared by the repeated applications of 20 μL of 1% DNCB in acetone/olive oil (4:1) to the outer and inner surfaces of mouse ears and 100 μL of the same solution to the shaved back skin once on days 1 and 4. Mice of Control group were treated with the identical volumes of vehicle.
# The DNCB-sensitized mice were randomly assigned to one of four groups: DNCB, DNCB+0.1% topical melatonin, DNCB+1% topical melatonin, DNCB+8% topical melatonin. Each group (including Control group) consisted of 3 mice. On days 8 and 11, sensitized mice was challenged by applying 0.2% DNCB to the skin surfaces. For the three groups treated with topical melatonin groups, 0.1 mg of topical melatonin cream was given twice a day from day 1 to day 14. The cream base consisted of a mixture of tefose 63, octyldodecyl myristate, sorbic acid, methyl paraben sodium, ddH2O, and apricot kernel oil. For Control and DNCB groups, 0.1 mg of cream base was given twice a day from day 1 to day 14. This experiment was ended at Day 15.
# The dermatitis severity of each mouse treated with or without melatonin was evaluated in the same manner as those described in Example 5. This evaluation was performed on the last day of the experiment (Day 15) by an investigator who was blind to the grouping of the animals.
# [5] = after vs before oral melatonin 3 mg/d, 4 weeks, mean
# [6] = melatonin vs placebo, adjusted for age and sex
compound,measurement,setting,value
"COc1ccc2[nH]cc(CCNC(C)=O)c2c1 [Melatonin, melatonin]","SCORAD index vs placebo, Wilcoxon signed rank test","[1]; FIGS. 2A and 2C, sensitivity analysis",apparently decreased the SCORAD index
same,patients who subjectively believed that their dermatitis had improved,"[1]; after melatonin treatment, 17 of 36 (placebo 12 of 38 [32%])",47%
same,"Subjective sleep score, After","[1]; after oral melatonin 3 mg/d at bedtime for 4 weeks, mean",3.8
same,"Pruritus score, After","[1]; after oral melatonin 3 mg/d at bedtime for 4 weeks, mean, score 0 to 10",5.1
same,"Objective SCORAD index, After","[1]; after oral melatonin 3 mg/d at bedtime for 4 weeks, mean, score 0 to 83",31.3
same,"SCORAD index, After","[1]; after oral melatonin 3 mg/d at bedtime for 4 weeks, mean, score 0 to 103",40.2
same,"Objective SCORAD index, Difference",[1]; [5],−8.2
same,"Pruritus score, Difference",[1]; [5],−0.6
same,"SCORAD index, Difference",[1]; [5],−9.9
same,"Subjective sleep score, Difference",[1]; [5],−1.1
same,mean reduction of the SCORAD index,"[1]; in 4 weeks, oral melatonin 3 mg/d",9.9
same,decrease of the SCORAD index compared with placebo,"[1]; linear mixed-effects model, adjusted for age and sex",9.1
same,decrease of the objective SCORAD index compared with placebo,"[1]; linear mixed-effects model, no significant carryover effect (P=0.81), significant period effect (P=0.02)",8.7
same,"mean SCORAD index, first treatment period, after","[1]; melatonin group, first treatment period, after oral 3 mg/d for 4 weeks",42.3
same,"mean SCORAD index, first treatment period, before","[1]; melatonin group, first treatment period, before treatment",49.5
same,"mean SCORAD index, second treatment period, after","[1]; melatonin group, second treatment period, after oral 3 mg/d for 4 weeks",38.3
same,"mean SCORAD index, second treatment period, before","[1]; melatonin group, second treatment period, before treatment",48.7
same,"Subjective sleep score, Before","[1]; melatonin phase, before treatment, mean",4.8
same,"Pruritus score, Before","[1]; melatonin phase, before treatment, mean, score 0 to 10",5.6
same,"Objective SCORAD index, Before","[1]; melatonin phase, before treatment, mean, score 0 to 83",38.6
same,"SCORAD index, Before","[1]; melatonin phase, before treatment, mean, score 0 to 103",49.1
same,"Objective SCORAD index, Difference of Treatment Effect From the Linear Mixed-Effects Model, Mean",[1]; [6],−8.7
same,"Pruritus score, Difference of Treatment Effect From the Linear Mixed-Effects Model, Mean",[1]; [6],0.0
same,"SCORAD index, Difference of Treatment Effect From the Linear Mixed-Effects Model, Mean",[1]; [6],−9.1
same,"Subjective sleep score, Difference of Treatment Effect From the Linear Mixed-Effects Model, Mean",[1]; [6],−0.4
same,effect on the stages of sleep and limb movement,[2],did not have a significantly different effect
same,Nocturnal urinary 6-sulfatoxymelatonin levels,[3],significantly increased
same,clinical score (dermatitis),[4]; 0.1% melatonin cream twice a day,7
same,gross skin findings,"[4]; 0.1%, 1%, and 8% topical melatonin, 8% improved the skin severity most",improved the gross skin findings in a dose-dependent manner
same,clinical score (dermatitis),[4]; 8% melatonin cream twice a day,2
same,Ear thickness,"[4]; after 8% melatonin treatment, FIG. 14",significantly improved
